Laboratory results published in patent US8629102B2, “3-hydroxyisothiazole 1-oxide derivatives” (Mochida Pharmaceutical Co., Ltd., priority 2011, dated 2014).

Molecular target: T1, GPR40 of human origin (Homo sapiens, UniProt O14842)
T1 construct: expressed in transfected cells
Experiment: Agonist action on GPR40 of human origin (intracellular Ca2+ change)
Format: cell-based
Conditions: CHO cell strain stably expressing GPR40 of human origin; change in Ca2+ concentration, fluorescent calcium indicator
In short: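 CHO cells stably expressing human GPR40, cultured overnight, then loaded 1 h with Calcium 4 dye plus probenecid in HEPES-buffered HBSS. Compound added in 20 mM HEPES-HBSS; intracellular Ca2+ change read by fluorescence, EC50 from dose-response of fluorescence change.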

T1 sequence (O14842 whole entry): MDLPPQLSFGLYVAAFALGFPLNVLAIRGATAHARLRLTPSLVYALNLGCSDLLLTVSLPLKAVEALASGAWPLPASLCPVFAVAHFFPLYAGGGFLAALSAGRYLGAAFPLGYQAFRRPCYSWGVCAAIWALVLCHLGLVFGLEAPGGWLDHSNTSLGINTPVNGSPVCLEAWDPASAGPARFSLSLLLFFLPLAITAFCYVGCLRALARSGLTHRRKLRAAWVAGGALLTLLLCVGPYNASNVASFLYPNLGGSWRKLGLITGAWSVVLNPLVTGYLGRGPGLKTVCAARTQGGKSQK

Row | Compound | EC50 [nM]
1 | [O-][s+]1nc(O)cc1-c1ccc(O[C@@H]2CCc3c(-c4ccc(Cl)cc4C(F)(F)F)cccc32)cc1 (stereo partly drawn) [Example 69, 5-(4-(((R)-4-(4-chloro-2-trifluoromethylphenyl)-2,3-dihydro-1H-inden-1-yl)oxy)phenyl)-3-hydroxyisothiazole 1-oxide] | 300 to 3000
2 | CC(C)c1ccc(-c2cccc3c2CC[C@H]3Oc2ccc(-c3cc(O)n[s+]3[O-])cc2)c(Cl)n1 (stereo partly drawn) [Example 76, 5-(4-(((R)-4-(6-isopropyl-2-chloropyridin-3-yl)-2,3-dihydro-1H-inden-1-yl)oxy)phenyl)-3-hydroxyisothiazole 1-oxide] | < 300
3 | [O-][s+]1nc(O)cc1-c1ccc(O[C@@H]2CCc3c(Oc4cccc(C(F)(F)F)c4)cccc32)cc1 (stereo partly drawn) [Example 84, 3-hydroxy-5-(4-(((R)-4-(3-(trifluoromethyl)phenoxy)-2,3-dihydro-1H-inden-1-yl)oxy)phenyl)isothiazole 1-oxide] | < 300
4 | COc1ccc(Oc2cccc3c2CC[C@H]3Oc2ccc(-c3cc(O)n[s+]3[O-])cc2)cn1 (stereo partly drawn) [Example 100, 3-hydroxy-5-(4-(((R)-4-((6-methoxypyridin-3-yl)oxy)-2,3-dihydro-1H-inden-1-yl)oxy)phenyl)isothiazole 1-oxide] | < 300
5 | Cc1nc(OCCC(C)(C)O)ccc1Oc1cccc2c1OCC2Oc1ccc(-c2cc(O)n[s+]2[O-])cc1 (single isomer, unassigned) [Example 153-a, 3-hydroxy-5-(4-((7-((6-(3-hydroxy-3-methylbutoxy)-2-methylpyridin-3-yl)oxy)-2,3-dihydrobenzofuran-3-yl)oxy)phenyl)isothiazole 1-oxide] | < 300
6 | Cc1ccc(Cl)c(-c2cccc3c2CC[C@H]3Oc2ccc(-c3cc(O)n[s+]3[O-])cc2)c1 (single isomer, unassigned) [Example 15] | < 300
7 | [O-][s+]1nc(O)cc1-c1ccc(O[C@@H]2CCc3c(Oc4ccc(C(F)(F)F)cc4)cccc32)cc1 (stereo partly drawn) [Example 87, 3-hydroxy-5-(4-(((R)-4-(4-(trifluoromethyl)phenoxy)-2,3-dihydro-1H-inden-1-yl)oxy)phenyl)isothiazole 1-oxide] | < 300
8 | Cc1cc(-c2cccc3c2CC[C@H]3Oc2ccc(-c3cc(O)n[s+]3[O-])cc2)ccc1F (stereo partly drawn) [Example 38, 5-(4-(((R)-4-(4-fluoro-3-methylphenyl)-2,3-dihydro-1H-inden-1-yl)oxy)phenyl)-3-hydroxyisothiazole 1-oxide] | < 300
9 | Cc1ccc(Oc2cccc3c2CC[C@H]3Oc2ccc(-c3cc(O)n[s+]3[O-])cc2)nc1 (stereo partly drawn) [Example 134, 3-hydroxy-5-(4-(((R)-4-((5-methylpyridin-2-yl)oxy)-2,3-dihydro-1H-inden-1-yl)oxy)phenyl)isothiazole 1-oxide] | < 300
10 | Cc1nc(OCCC(C)(C)O)ccc1-c1cccc2c1OCC2Oc1ccc(-c2cc(O)n[s+]2[O-])cc1 (single isomer, unassigned) [Example 154-a, 3-hydroxy-5-(4-((7-(6-(3-hydroxy-3-methylbutoxy)-2-methylpyridin-3-yl)-2,3-dihydrobenzofuran-3-yl)oxy)phenyl)isothiazole 1-oxide] | < 300
11 | Cc1ccc(-c2cccc3c2CC[C@H]3Oc2ccc(-c3cc(O)n[s+]3[O-])cc2)cc1F (stereo partly drawn) [Example 13, 5-(4-(((R)-4-(3-fluoro-4-methylphenyl)-2,3-dihydro-1H-inden-1-yl)oxy)phenyl)-3-hydroxyisothiazole 1-oxide] | < 300
12 | Cc1cccc(Oc2cccc3c2OCC3Oc2ccc(-c3cc(O)n[s+]3[O-])cc2)c1 (stereo not drawn) [Example 155, 3-hydroxy-5-(4-((7-(m-tolyloxy)-2,3-dihydrobenzofuran-3-yl)oxy)phenyl)isothiazole 1-oxide] | < 300
13 | [O-][s+]1nc(O)cc1-c1ccc(O[C@@H]2CCc3c(-c4ccc(Cl)cc4F)cccc32)cc1 (stereo partly drawn) [Example 16, 5-(4-(((R)-4-(4-chloro-2-fluorophenyl)-2,3-dihydro-1H-inden-1-yl)oxy)phenyl)-3-hydroxyisothiazole 1-oxide] | 300 to 3000
14 | [O-][s+]1nc(O)cc1-c1ccc(O[C@@H]2CCc3c(-c4ccccc4Cl)cccc32)cc1 (stereo partly drawn) [Example 10, 5-(4-(((R)-4-(2-chlorophenyl)-2,3-dihydro-1H-inden-1-yl)oxy)phenyl)-3-hydroxyisothiazole 1-oxide] | < 300
15 | CS(=O)(=O)CCCOc1ccc(Oc2cccc3c2CC[C@H]3Oc2ccc(-c3cc(O)n[s+]3[O-])cc2)cc1 (stereo partly drawn) [Example 115, 3-hydroxy-5-(4-(((R)-4-(4-(3-(methylsulfonyl)propoxy)phenoxy)-2,3-dihydro-1H-inden-1-yl)oxy)phenyl)isothiazole 1-oxide] | < 300
16 | CCCc1ccc(-c2cccc3c2CC[C@H]3Oc2ccc(-c3cc(O)n[s+]3[O-])cc2)cc1 (stereo partly drawn) [Example 22, 5-(4-(((R)-4-(4-n-propylphenyl)-2,3-dihydro-1H-inden-1-yl)oxy)phenyl)-3-hydroxyisothiazole 1-oxide] | < 300
17 | [O-][s+]1nc(O)cc1-c1ccc(O[C@@H]2CCc3c(-c4ccc(Cl)nc4)cccc32)cc1 (stereo partly drawn) [Example 74, 5-(4-(((R)-4-(6-chloropyridin-3-yl)-2,3-dihydro-1H-inden-1-yl)oxy)phenyl)-3-hydroxyisothiazole 1-oxide] | < 300
18 | [O-][s+]1nc(O)cc1-c1ccc(O[C@@H]2CCc3c(-c4cccnc4Cl)cccc32)cc1 (single isomer, unassigned) [Example 75] | < 300
19 | [O-][s+]1nc(O)cc1-c1ccc(O[C@@H]2CCc3c(-c4cc(F)ccc4OCc4ccccc4)cccc32)cc1 (stereo partly drawn) [Example 62, 5-(4-(((R)-4-(2-benzyloxy-5-fluorophenyl)-2,3-dihydro-1H-inden-1-yl)oxy)phenyl)-3-hydroxyisothiazole 1-oxide] | 300 to 3000
20 | Cc1ccc(-c2cccc3c2CC[C@H]3Oc2ccc(-c3cc(O)n[s+]3[O-])cc2)c2ccccc12 (stereo partly drawn) [Example 50, 5-(4-(((R)-4-(4-methylnaphthalen-1-yl)-2,3-dihydro-1H-inden-1-yl)oxy)phenyl)-3-hydroxyisothiazole 1-oxide] | 300 to 3000
21 | CC(C)Oc1ccc(-c2cccc3c2CC[C@H]3Oc2ccc(-c3cc(O)n[s+]3[O-])cc2)cc1 (stereo partly drawn) [Example 31, 5-(4-(((R)-4-(4-isopropoxyphenyl)-2,3-dihydro-1H-inden-1-yl)oxy)phenyl)-3-hydroxyisothiazole 1-oxide] | 300 to 3000
22 | Cc1nc(OCCCS(C)(=O)=O)ccc1Oc1cccc2c1CC[C@H]2Oc1ccc(-c2cc(O)n[s+]2[O-])cc1 (stereo partly drawn) [Example 117, 3-hydroxy-5-(4-(((R)-4-((2-methyl-6-(3-(methylsulfonyl)propoxy)pyridin-3-yl)oxy)-2,3-dihydro-1H-inden-1-yl)oxy)phenyl)isothiazole 1-oxide] | < 300
23 | COc1ccc(F)c(-c2cccc3c2CC[C@H]3Oc2ccc(-c3cc(O)n[s+]3[O-])cc2)c1 (stereo partly drawn) [Example 53, 5-(4-(((R)-4-(2-fluoro-5-methoxyphenyl)-2,3-dihydro-1H-inden-1-yl)oxy)phenyl)-3-hydroxyisothiazole 1-oxide] | < 300
24 | [O-][s+]1nc(O)cc1-c1ccc(O[C@@H]2CCc3c(-c4ccc(Cl)s4)cccc32)cc1 (stereo partly drawn) [Example 81, 5-(4-(((R)-4-(5-chlorothiophen-2-yl)-2,3-dihydro-1H-inden-1-yl)oxy)phenyl)-3-hydroxyisothiazole 1-oxide] | < 300
